In US12485147B2, “Method for producing cell mass including pituitary tissue, and cell mass thereof” (SUMITOMO CHEMICAL COMPANY, LIMITED, priority 2017, dated 2025):

Key:
Type in all cases: cell-based
[1] = test system: Human ES cells (KhES-1 strain); test: Addition conditions of Wnt signal transduction pathway inhibiting substance in production of cell mass containing pituitary tissue; bright field observation; settings: day 28; for nonneural epithelial structure on surface of cell mass: IWP-2 2 μM, KY02111 5 μM, C-59 500 nM, LGK974 5 μM, XAV939 1 μM, IWR1-endo 1 μM added at start, with SB-431542, BMP4, SAG; for size and condition of cell mass: 2 μM IWP-2, 5 μM KY02111, 1 μM XAV939, 1 μM IWR1e
Description: (§1) Human ES cells (KhES-1 strain) were cultured under feeder-free conditions according to the method described in Scientific Reports, 4, 3594 (2014). As the feeder-free medium, StemFit medium was used and, as the feeder-free scaffold, Laminin 511-E8 was used.
(§2) Specific maintenance culturing operation was performed in the same manner as in Example 1.
Thereafter, suspension culturing in a 96 well plate was performed under conditions similar to those in Example 1 except that the kind or the presence or absence of the Wnt signal transduction pathway inhibiting substance to be added at the start of suspension culturing was changed. As the Wnt signal transduction pathway inhibiting substances, IWP-2, C-59 (manufactured by Cayman Chemicals, 500 nM), LGK974 (manufactured by Cayman Chemicals, 5 μM) which are PORCN inhibitors; XAV939 (manufactured by Cayman Chemicals, 1 μM), IWR1-endo (manufactured by Merck Millipore, 1 μM) which are TANK inhibitors, and KY02111 (manufactured by Cayman Chemicals, 5 μM) whose action mechanism has not been reported were added at the start of the suspension culturing, and the condition with the addition of DMSO alone as a control of no addition of a Wnt signal transduction pathway inhibiting substance was performed.
A serum-free medium not containing Y27632 and containing each Wnt signal transduction pathway inhibiting substance, SB-431542, BMP4, and SAG was added at 100 μl per well on day 2 from the start of suspension culturing. BMP4 was added at 3 nM to the medium so that the final concentration in the well would be 1.5 nM, and SAG was added at 4 μM to the medium so that the final concentration in the well would be 2 μM.
A half amount of the medium was changed with a serum-free medium not containing Y27632 or BMP4 and containing each Wnt signal transduction pathway inhibiting substance, SB-431542 and SAG on days 6, 10, 13, 17, 21, 24 from the start of suspension culturing. In addition to the above-mentioned conditions, the condition in which neither SB431542 nor a Wnt signal transduction pathway inhibiting substance is added during suspension culturing was also performed.
Bright field observation was performed using an inverted microscope (manufactured by KEYENCE CORPORATION, BIOREVO) on day 28 from the start of suspension culturing (FIGS. 7A-H).

[2] = test system: Human iPS cells (HC-6 #10 strain); test: Cell mass from human iPS cells using Wnt signal transduction pathway activating substance (CHIR99021) and inhibiting substance in combination; bright field observation and immunostaining
Description: Human iPS cells (HC-6 #10 strain, obtained from RIKEN) were cultured under feeder-free conditions according to the method described in Scientific Reports, 4, 3594 (2014). As the feeder-free medium, StemFit medium was used and, as the feeder-free scaffold, Laminin 511-E8 was used. Specific maintenance culturing operation was performed in the same manner as in Example 1. The thus-prepared subconfluent human iPS cells were washed with PBS, subjected to an enzyme treatment using Accumax, a serum-free medium for differentiation induction was added, and the cells were scraped from the surface of the culture dish by using a cell scraper and dispersed into single cells by pipetting. Thereafter, the aforementioned human ES cells dispersed into single cells were suspended in 100 μl of a serum-free medium at 9×10^3 cells per well of a non-cell-adhesive 96-well culture plate (PrimeSurface […]-bottom plate, manufactured by SUMITOMO BAKELITE), and cultured in suspension under the conditions of 37° C., 5% CO2. As the serum-free medium ([…]) therefor, a serum-free medium which is a 1:1 mixture of F-12+Glutamax medium (manufactured by Thermo Fisher Scientific) and IMDM+Glutamax medium (manufactured by Thermo Fisher Scientific) supplemented with 5% Knockout Serum Replacement (manufactured by Thermo Fisher Scientific), 450 μM 1-monothioglycerol (manufactured by Wako Pure Chemical Industries, Ltd.), 1× Chemically defined lipid concentrate (manufactured by Thermo Fisher Scientific), 50 unit/ml penicillin-50 μg/ml streptomycin (manufactured by Nacalai Tesque) was used. At the time of the start of suspension culturing (day 0 from the start of suspension culturing, start of step 1), Y27632 (final concentration 20 μM), SB-431542 (TGFβ signal transduction pathway inhibiting substance, manufactured by Wako Pure Chemical Industries, Ltd., 1 μM), and IWP-2 (Wnt signal transduction pathway inhibiting substance, manufactured by Tocris Bioscience, 2 μM) were added to the aforementioned serum-free medium. In addition, conditions in which CHIR99021 (manufactured by Cayman Chemical) is added at 300 nM, 1 μM, 3 μM as a Wnt signal transduction pathway activating substance, and conditions in which DMSO alone is added as a control of no addition were set, totaling in 4 conditions. In the present Example, CHIR99021 is sometimes referred to as CHIR. A serum-free medium not containing Y27632 and containing SB-431542, IWP-2, BMP4 (BMP signal transduction pathway activating substance) and CHIR99021 under each condition set was added at 100 μl per well on day 2 from the start of suspension culturing. BMP4 was added at 3 nM to the medium so that the final concentration in the well would be 1.5 nM. As a method for inducing cell mass containing nonneural epithelium and placode, a half amount of the medium was changed with a serum-free medium not containing Y27632 or BMP4, and containing IWP-2, SB-431542, K02288 (BMP signal transduction pathway inhibiting substance, manufactured by AdooQ Bioscience), FGF2-TS (FGF signal transduction pathway activating substance, manufactured by HumanZyme) and Heparin Sodium (manufactured by FUJIFILM Wako Pure Chemical Corporation) on day 3 from the start of suspension culturing. K02288, FGF2, and Heparin Sodium were respectively added at 2 μM, 40 ng/ml, and 20 μg/ml to the medium so that the final concentration in the well would be respectively 1 μM, 20 ng/ml, and 10 μg/ml. A half amount of the medium was changed on day 6 and day 10 from the start of suspension culturing. On day 13 from the start of suspension culturing, bright field observation was performed under an inverted microscope (FIGS. 11A-D). […] The above-mentioned cell masses on day 13 of the culturing were fixed by a method similar to that in Example 1 to prepare cryosections. […]

[3] = test system: Human ES cells (KhES-1 strain); test: TGFβ signal transduction pathway inhibitory conditions in production of cell mass containing pituitary tissue; settings: IWP-2 added, no TGFβ signal transduction pathway inhibiting substance; day 28
Description: as §1, §2
Thereafter, suspension culturing in a 96 well plate was performed under conditions similar to those in Example 1 except that the concentration and kind of the TGFβ signal transduction pathway inhibiting substance to be added at the start of the suspension culturing are changed. As the TGFβ signal transduction pathway inhibiting substance therefor, SB431542 (1 or 10 μM), A 83-01 (manufactured by Cayman Chemicals, 1 or 10 μM), and RepSox (manufactured by Cayman Chemicals, 1 μM) were added at respective concentration conditions.
Thereafter, a serum-free medium not containing Y27632 and containing IWP-2, each TGFβ signal transduction pathway inhibiting substance, BMP4, and SAG was added at 100 μl per well on day 2 from the start of suspension culturing. BMP4 was added at 3 nM to the medium so that the final concentration in the well would be 1.5 nM, and SAG was added at 4 μM to the medium so that the final concentration in the well would be 2 μM.
A half amount of the medium was changed with a serum-free medium not containing Y27632 or BMP4 and containing IWP-2, each TGFβ signal transduction pathway inhibiting substance, and SAG on days 6, 10, 13, 17, 21, 24 from the start of suspension culturing. In addition to the above-mentioned conditions, the condition in which neither a TGFβ signal transduction pathway inhibiting substance nor IWP-2 is added during suspension culturing, and the condition in which IWP-2 is added and a TGFβ signal transduction pathway inhibiting substance is not added during suspension culturing were also performed.

[4] = test system: Human ES cells (KhES-1 strain); test: Effect of compound treatment before differentiation induction in production of cell mass containing pituitary tissue; bright field observation; settings: pre-treatment with 5 μM SB-431542 alone; day 28
Description: Human ES cells (KhES-1 strain) were cultured under feeder-free conditions according to the method described in Scientific Reports, 4, 3594 (2014). As the feeder-free medium, StemFit medium was used and, as the feeder-free scaffold, Laminin 511-E8 was used. Specific maintenance culturing operation was performed in the same manner as in Example 1. As a pre-treatment for differentiation induction of the cultured cells, cells under 4 conditions were maintenance cultured under conditions in which, condition in which nothing is simultaneously added with medium change with […] medium (Control), conditions in which 300 nM SAG alone is added (+300 nM SAG), conditions in which 5 μM SB-431542 alone is added (+5 μM SB-431542), and conditions in which SAG and SB431542 are simultaneously added (+SAG/SB) at 6 days after seeding. The next day of the above-mentioned treatment, human ES cells under 4 conditions that reached subconfluence were each subjected to differentiation induction by suspension culturing into a cell mass containing pituitary tissue according to the method described in Example 1. Bright field observation was performed under an inverted microscope on day 28 from the start of suspension culturing (FIGS. 6A-D).

[5] = 300 nM CHIR vs no addition, day 13

Cc1cc(-c2ccc(CC(=O)Nc3ccc(-c4cccnc4)cc3)cc2)ccn1 [C59]
nonneural epithelial structure on surface of cell mass [1]: cell masses having a nonneural epithelial structure on the surface were formed

Cc1c[nH]c(-c2cnc(NCCNc3ccc(C#N)cn3)nc2-c2ccc(Cl)cc2Cl)n1 [CHIR99021]
neural tissue in the inside [2, 5]: survival of neural tissue in the inside and epithelial formation were promoted | size of cell mass [2, 5]: larger cell masses were formed | marker-positive tissue formation (immunostaining) ([2]; 300 nM, 1 μM CHIR (also no addition), day 13): formation of Dlx5, Six1, E-Cadherin, N-Cadherin positive nonneural epithelium or placode precursor tissue | nonneural epithelium thickening and placode formation ([2]; 1 μM CHIR, day 13): thickening of nonneural epithelium on the outside and formation of placode were suppressed | formation of nonneural epithelial tissue on surface (bright field) ([2]; 3 μM CHIR99021, day 13): formation of nonneural epithelial tissue on the surface of cell mass is inhibited | formation of nonneural epithelium (immunostaining) ([2]; 3 μM CHIR, day 13): Formation of nonneural epithelium was not observed | growth of cell masses (bright field) ([2]; CHIR99021 300 nM, 1 μM, 3 μM in presence of IWP-2, day 13): cell masses grow in a concentration-dependent manner | level effective for growth of whole cell masses, survival of neural tissue in the inside and promotion of epithelial formation ([2]; in the presence of IWP-2): not more than 3 μM

Cc1ccc2nc(NC(=O)CSc3nc4c(c(=O)n3-c3ccccc3)SCC4)sc2c1 [IWP-2]
mesenchymal cell between outer nonneural epithelial tissue and inner neuroepithelial tissue [3]: a mesenchymal cell could not be confirmed | nonneural epithelial structure on surface of cell mass [3]: a nonneural epithelial structure was formed on the surface of the cell mass | size of cell mass [3]: the formed cell mass was small | size and condition of cell mass [1]: large cell masses in good condition were formed | nonneural epithelial structure on surface of cell mass [1]: cell masses having a nonneural epithelial structure on the surface were formed

O=C(Nc1cccc2cccnc12)c1ccc(N2C(=O)[C@@H]3[C@H](C2=O)[C@@H]2C=C[C@H]3C2)cc1 [IWR1-endo]
size and condition of cell mass [1]: large cell masses in good condition were formed | nonneural epithelial structure on surface of cell mass [1]: cell masses having a nonneural epithelial structure on the surface were formed

COc1ccc(CCC(=O)Nc2nc3ccc(Cl)cc3s2)cc1OC [KY02111]
size and condition of cell mass [1]: large cell masses in good condition were formed | nonneural epithelial structure on surface of cell mass [1]: cell masses having a nonneural epithelial structure on the surface were formed

Cc1cc(-c2ncc(CC(=O)Nc3ccc(-c4cnccn4)cn3)cc2C)ccn1 [LGK974]
nonneural epithelial structure on surface of cell mass [1]: cell masses having a nonneural epithelial structure on the surface were formed

NC(=O)c1ccc(-c2nc(-c3ccc4c(c3)OCO4)c(-c3ccccn3)[nH]2)cc1 [SB431542, 4-(5-benzol[1,3]dioxol-5-yl-4-pyridin-2-yl-1H-imidazol-2-yl)-benzamide]
cell mass formation [4]: larger cell masses containing pituitary tissues were formed | nonneural epithelial tissue on surface of cell mass ([1]; SB431542 added, no Wnt signal transduction pathway inhibiting substance): nonneural epithelial tissue was not formed on the surface of the cell masses

Oc1nc(-c2ccc(C(F)(F)F)cc2)nc2c1CSCC2 [XAV939]
size and condition of cell mass [1]: large cell masses in good condition were formed | nonneural epithelial structure on surface of cell mass [1]: cell masses having a nonneural epithelial structure on the surface were formed
